Experiment [1] deals with mice with experimentally induced heart failure. Particulars: Pyr-apelin-13 2 mg/kg/day; between weeks 1 and 3; n=6. On the procedure:
Left anterior decending artery ligation. Animals were anesthetized with 2-3% inhalational isofluorane and 50 mg/kg sodium pentobarbital intraperitoneally. […] The animals were placed in the left lateral decubitus position and a thoracotomy performed at the 4th intercostal space. Peak inspiratory pressures were monitored and maintained between 10-14 cm of water. The lung was retracted and the pericardium incised. The left coronary artery was ligated with a 7-0 prolene suture until blanching of the distal left ventricle was noted. Heart rate and temperature were monitored during the procedure. After ascertaining complete hemostasis, the chest wall was closed in four layers. The animals were weaned from the ventilator and anesthetic and then extubated and monitored in the recovery area.
Treadmill exercise. […] In mice, a commonly used commercially available setup (Columbus Instruments) employs a moving belt encased in a sealed Plexiglas enclosure, allowing for measurement of oxygen consumption and carbon dioxide production. Stimulus devices consist of a metal shock grid. Metabolic measurements are performed using an open circuit volumetric gas analysis system (Oxymax System; Columbus Instruments). The low dead space of this circuit allows quick gas equilibration with a t1/2 of 30 s, which is highly suitable for use during graded exercise protocols. […]

In experiment [2] the test system is mice given angiotensin II and isoproterenol infusions. Description: Neurohormonal cardiomyopathy model, echocardiography. Particulars: wild type mice. Format: in vivo, mouse. On the procedure: Echocardiography. Two dimensional and M mode echocardiography was carried out using thea GE Vivid ultrasound platform with the small animal probe (13 MHz). […] After shaving of the anterior chest, mice were warmed using a heat lamp. Short axis views of the left ventricle were captured at the level of the papillary muscles in 2D and M modes. Analysis was carried out offline and fractional shortening calculated as [LVEDD−LVESD]/LVEDD where LVEDD is left ventricular end diastolic diameter (measured at the tip of the mitral valve leaflets) and LVESD is left ventricular end systolic diameter.
Neurohormonal cardiomyopathy model. […] All mice were age 12-14 weeks.

For a further experiment, the system named is ApoE-KO mice. Briefly: Atherosclerotic lesion analysis in ApoE-KO mice. It is filed as in vivo, mouse. Conditions: for reduction of total lesion burden: co-infusion of Apelin 2 mg/kg/day with AngII 1.4 mg/kg/day. As for the experimental part: Animals. Mice were maintained in temperature-controlled (20° C. to 22° C.) environment with a 12-hour light-dark cycle. […] All mice were C57BL/6J ApoE-KO male mice (Jackson Laboratories, Bar Harbor, […].) between the ages of 8-12 weeks. […] Animal procedures were carried out in accordance with the Institutional Review Board Guidelines at Stanford University.
Tissue preparation, histology and lesion quantification. Mice were euthanized 28 days following implantation of osmotic mini-pumps. The thoracic cage was removed and the animal perfused with phosphate buffered saline solution (PBS) for 2 minutes. The entire aorta and vein graft were exposed and the periadventitial tissue and scar tissue dissected and removed. Subsequently mice were perfusion fixed in situ with 4% phosphate-buffered paraformaldehyde. In some animals aorta and lung were removed fresh for biochemical assays.
Atherosclerotic Lesion Analysis Atherosclerosis lesion area was determined as described previously. Briefly, the arterial tree was perfused with PBS (pH 7.3) and then perfusion fixed with phosphate-buffered paraformaldehyde (3%, pH 7.3). The heart and full length of the aorta-to-iliac bifurcation was exposed and dissected carefully from any surrounding tissues. Aortas were then opened along the ventral midline and dissected free of the animal and pinned out flat, intimal side up, onto black wax. Aortic images were captured with a digital camera (DMC1) mounted on a Leica MZ6 stereomicroscope and analyzed using Fovea Pro (Reindeer Graphics, Asheville, N.C.). Percent lesion area was calculated as total lesion area divided by total surface area.

Experiment [3] deals with superoxide production in aortic tissue of apoE knockout mice. Briefly: Lucigenin-enhanced chemiluminescence of aortic superoxide. Conditions: addition of apelin to AngII. Format: in vivo, mouse. As for the experimental part: Lucigenin-enhanced chemiluminescence. Total aortic superoxide was measured by lucigenin-enhanced chemiluminescence as described previously. Aortas were harvested flushed with Krebs-HEPES buffer, opened longitudinally and divided into halves. Vessels were gassed with 95% oxygen/5% carbon dioxide in warmed Krebs-HEPES buffer for 30 minutes before measurements of chemiluminescence in a luminometer (manufacturer, location) using 20 μmol/L lucigenin. One half of each vessel was incubated in L-NAME (1 mmol/L). After measuring baseline readings for 4 minutes, samples were equilibrated and dark adapted for 5 mins, and chemiluminescence was recorded for 10 minutes. Recordings were performed blinded to the samples identity. Results were expressed as counts per second per milligram of tissue dry weight.

The subject of experiment [4] is NFκB, NFAT, AP-1 and SRE reporter constructs. Description: Luciferase reporter assays of AngII nuclear signaling in HEK-293 cells. It is filed as cell-based. An excerpt: cDNA Constructs APJ expression construct was purchased from cDNA.org. AT1R construct was obtained from Dr. Marc Caron. AT1R transcript was inserted into a pEGFP-N1 vector (Clonetech). The NF-kB and SRE luciferase reporter constructs were obtained from BD Biosciences.
Cells were immediately lysed.
(A reporter such as luciferase makes a cellular process visible.)

The target in the next experiment is T1, AT1R (Rattus norvegicus, UniProt P25095).
T1 construct: expressed in transfected cells; host or cells: HEK-293
T1 sequence (P25095 1-359): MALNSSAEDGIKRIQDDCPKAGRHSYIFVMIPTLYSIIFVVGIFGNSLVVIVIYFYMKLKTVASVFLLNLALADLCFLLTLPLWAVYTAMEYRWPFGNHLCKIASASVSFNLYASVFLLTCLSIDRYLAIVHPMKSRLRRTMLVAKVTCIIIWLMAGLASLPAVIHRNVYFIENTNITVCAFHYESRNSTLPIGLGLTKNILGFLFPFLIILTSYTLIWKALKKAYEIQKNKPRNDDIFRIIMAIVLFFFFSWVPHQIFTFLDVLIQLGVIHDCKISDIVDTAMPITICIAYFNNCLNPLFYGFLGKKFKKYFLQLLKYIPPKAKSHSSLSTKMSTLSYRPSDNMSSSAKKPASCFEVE
Description: Competitive ligand binding with FAM-labeled AngII in HEK-293 cells. Conditions: unlabeled ligand 100 nM; HEK-293 cells transfected with AT1R.

The subject of experiment [5] is Erk1/2 phosphorylation in RASM. Conditions: AngII stimulated RASM.
In experiment [6] the test system is Erk1/2 phosphorylation in HEK293 cells expressing AT1R. Particulars: AngII, 5 and 15 minute timepoints.
Description: Cell Culture, Transfections, and Stimulation Assays HEK293 cells were cultured in Dulbecco's modified Eagle's medium with 10% fetal bovine serum, 10 units/ml penicillin, and 100 μg/ml streptomycin. Transient transfection of the HEK293 cells was carried out using FuGene reagent per manufacturer's protocols in 6 well plates (Roche). […] For ERK phosphorylation, transfected HEK293 cells were serum starved for 3 hours and incubated with the agonist for designated times at 37 C. Cells were immediately lysed.
The test system of another experiment is rats. Particulars: intravenous bolus injection in rats; Tatemoto et al., Lee et al.; cited from earlier work.

Entries after “also recorded” stand apart in the source; their conditions may differ.

apelin: the “average time to exhaustion / exercise capacity” value in [1] is given as “marked, statistically significant increase”. Also, in experiment [2] (apelin infused concomitantly with angiotensin II and isoproterenol), the heart failure phenotype result is recorded as “completely abrogated; also recorded: abrogated completely; also recorded: ameliorates the heart failure phenotype completely”. For the same substance, the “fractional shortening (post)” value in [2] (pyr-apelin-13 2 mg/kg/day with angiotensin II and isoproterenol, 7 day minipumps) is given as 42.6±1.3%. Further, in the experiment on ApoE-KO mice (apelin 2 mg/kg/day, 4 weeks), the “reduction in aortic root atherosclerotic burden vs saline treated controls (trend)” value worked out at 25%. The “reduction of total lesion burden” value is reported as “mitigated” with ApoE-KO mice (4 weeks) and 75% with ApoE-KO mice (4 weeks, listed as Apelin). Moreover, the “progression of atherosclerosis in aortic root (FIG. 17)” value in the experiment with ApoE-KO mice (osmotic minipump during high fat diet exposure) is on record as “do not alter”. The “AngII stimulated increase in total chemiluminescence” value in experiment [3] is reported as “abolished”. Also, the “NFκB reporter activation stimulated by TNF-α and H2O2” value in experiment [4] (apelin treatment) was “In neither case did apelin diminish transcription; also recorded: not affected”. Besides, the “AngII induced increase in reporter transcription” value in [4] (cells also treated with apelin) was “abrogated; also recorded: decreased activation”. For the same substance, the “competition for binding of FAM-AngII (10 nM) to AT1R” value on AT1R is given as “did not compete; also recorded: could not compete; also recorded: does not compete”. Moreover, in experiment [5], the Erk1/2 phosphorylation entry is “decreased”. Also, in [6], the “phosphorylation of Erk1/2” value is “dramatically reduced”. Also, the mean arterial pressure result with rats is on record as “decrease”.

The values above are taken from patent US7947280B2 (priority 2003, dated 2011).
